# Test results published in paper PMC9038752, “Molecular mechanisms of bifunctional vitamin D receptor agonist-histone deacetylase inhibitor hybrid molecules in triple-negative breast cancer” (Scientific Reports, 2022).
# Experiments:
# [1] = system: 4T1 mouse model of triple negative breast cancer; parameters: method as in PMID 28847749; details: aggressive 4T1 mouse model of TNBC; cited from earlier work
# 4TO7 cells = test: RNAseq gene expression profiling in 4TO7 cells; format: cell-based, mouse; details: relative to control
# Procedure: Cells were treated for 6 h to focus more on genes directly regulated by the VDR, or for 24 or 48 h to gain insight into longer-term effects on gene expression.
# McGill Genome Centre performed a quality control before sequencing in paired-end at 50 M reads by Illumina NovaSeq 6000 S4 PE100. Sets of genes regulated in the different conditions were sent to us and downstream analysis were performed.
# Table S1 and Table S2 : See Excel files with RNAseq results and analysis
# 48 hours prior to RNA extraction. Samples were prepared in triplicate and run on Illumina NovaSeq 6000 S4
# PE100. For assessing differential gene expression for RNAseq data, the LIMMA package inR was used.
# RNAseq results and statistical analyses from D, S, S+D, DK-406, and AM-193 conditions measured relative to
# AM-193 for 6 or 24 hours prior to RNA extraction . Samples were prepared in triplicate and run on Illumina
# NovaSeq 6000 S4 PE100. For assessing differential gene expression for RNAseq data, the LIMMA package in R was […]
# purified HDAC2 = target: T1, purified HDAC2 (Homo sapiens, UniProt Q92769); test: Fluorogenic HDAC inhibition assay, HDAC2; format: biochemical; details: purified HDAC2, fluorometric substrate
# T1 construct: purchased Cayman Chemical
# Procedure: (§1) The hybrids were assessed to determine their HDACi and VDR agonist activity as well as their antiproliferative properties relative to DK-406. HDACi activity was assessed in vitro using an acetylated lysine substrate that releases a fluorescent reporter upon HDACi deacetylation and subsequent trypsin digestion. Increasing sidechain length of pyrimidine hybrids enhanced the potency of HDAC6 inhibition, with several compounds inhibiting HDAC6 with a sub-micromolar IC50, similar to that of DK-406 (Fig. 4a). […] Next, we analyzed the effects of compounds on levels of H3K9 and H3K27 acetylation in 4TO7 cells, which are controlled by class I HDACs[29],[30]. […] We also tested the capacity of analogues to induce tubulin acetylation, controlled by class II enzyme HDAC6[32], in 4TO7 cells. Based on their relative efficacy in cytotoxicity assays (see below, Fig. 5c,d), we used 10^–5 M DK-406 and 10^–6 M AM-193 for these studies.
# (§2) Figure 4 (a) Results of in vitro assays for inhibition of purified HDAC2 and HDAC6 by DK-406 and heterocyclic hybrids as measured by inhibition of deacetylation of a fluorometric substrate (see Methods for details). (b–d) Left: Western blotting analysis of histone 3 lysine 9 (H3K9; b), H3K27 (c), or acetylated tubulin (d), levels in 4TO7 cells treated with ligands for 6 h. Representative western-blots are shown from at least 3 biological replicates. Right: Graphs representing the average of the replicates, bars are mean ± SD. Each condition was compared to control. *: p ≤ 0.05, **: p ≤ 0.01, ***: p ≤ 0.001, ****: p ≤ 0.0001, ns: not significant. TEXT PRINTED IN THE PICTURE: (a) DK-406: HDAC6 IC50 (μM): 0.6; HDAC2 IC50 (μM): 0.5 | (a) AM-155: HDAC6 IC50 (μM): 2.8; HDAC2 IC50 (μM): 1.7 | (a) AM-171: HDAC6 IC50 (μM): 0.5; HDAC2 IC50 (μM): 9.6 | (a) AM-172: HDAC6 IC50 (μM): 0.3; HDAC2 IC50 (μM): 7.7 | (a) AM-191: HDAC6 IC50 (μM): 1.9; HDAC2 IC50 (μM): 8.1 | (a) AM-192: HDAC6 IC50 (μM): 0.5; HDAC2 IC50 (μM): 6.5 | (a) AM-193: HDAC6 IC50 (μM): 0.3; HDAC2 IC50 (μM): 7.2
# (§3) Purified HDAC2 and HDAC6 were purchased from Cayman Chemical. Boc-Lys(Ac)-7-amino-4-methylcoumarin (BocLys(Ac)-AMC) was used as substrate for the HDAC assays. Substrate solution was prepared as follow: Boc(Lys-Ac)-AMC was dissolved in DMSO and diluted with HDAC buffer (15 mM tris–HCl [pH 8.1], 250 μM EDTA, 250 mM NaCl, 10% glycerol) to give 1 mM solutions containing 1.7% DMSO. Trypsin was used to stop the reaction, releasing free AMC. The trypsin solution was prepared as follow: trypsin was dissolved in HDAC buffer to give a concentration of 10 mg/mL. Release of AMC was monitored by measuring the fluorescence at 460 nm (lex = 390 nm) with a microplate reader (SpectraMax Gemini from Molecular Devices) at 37 °C. The AMC signals were recorded against a blank with buffer, substrate and trypsin but without the enzyme. All experiments were carried out at least in triplicate.
# (§4) For HDAC inhibition assays, inhibitor diluted in 50 μL of HDAC buffer was mixed with 10 μL of diluted enzyme solution in HDAC buffer at room temperature. The HDAC reaction was started by adding 40 μL of substrate solution in HDAC buffer followed by 60 min of incubation with stirring at 37 °C. The reaction was stopped by adding 100 μL of trypsin solution. After a 30 min incubation with stirring at 37 °C, the release of AMC was monitored by measuring the fluorescence.
# purified HDAC6 = target: T2, purified HDAC6 (Homo sapiens, UniProt Q9UBN7); test: Fluorogenic HDAC inhibition assay, HDAC6; format: biochemical; details: purified HDAC6, fluorometric substrate
# T2 construct: purchased Cayman Chemical
# T2 sequence (Q9UBN7 1-1215): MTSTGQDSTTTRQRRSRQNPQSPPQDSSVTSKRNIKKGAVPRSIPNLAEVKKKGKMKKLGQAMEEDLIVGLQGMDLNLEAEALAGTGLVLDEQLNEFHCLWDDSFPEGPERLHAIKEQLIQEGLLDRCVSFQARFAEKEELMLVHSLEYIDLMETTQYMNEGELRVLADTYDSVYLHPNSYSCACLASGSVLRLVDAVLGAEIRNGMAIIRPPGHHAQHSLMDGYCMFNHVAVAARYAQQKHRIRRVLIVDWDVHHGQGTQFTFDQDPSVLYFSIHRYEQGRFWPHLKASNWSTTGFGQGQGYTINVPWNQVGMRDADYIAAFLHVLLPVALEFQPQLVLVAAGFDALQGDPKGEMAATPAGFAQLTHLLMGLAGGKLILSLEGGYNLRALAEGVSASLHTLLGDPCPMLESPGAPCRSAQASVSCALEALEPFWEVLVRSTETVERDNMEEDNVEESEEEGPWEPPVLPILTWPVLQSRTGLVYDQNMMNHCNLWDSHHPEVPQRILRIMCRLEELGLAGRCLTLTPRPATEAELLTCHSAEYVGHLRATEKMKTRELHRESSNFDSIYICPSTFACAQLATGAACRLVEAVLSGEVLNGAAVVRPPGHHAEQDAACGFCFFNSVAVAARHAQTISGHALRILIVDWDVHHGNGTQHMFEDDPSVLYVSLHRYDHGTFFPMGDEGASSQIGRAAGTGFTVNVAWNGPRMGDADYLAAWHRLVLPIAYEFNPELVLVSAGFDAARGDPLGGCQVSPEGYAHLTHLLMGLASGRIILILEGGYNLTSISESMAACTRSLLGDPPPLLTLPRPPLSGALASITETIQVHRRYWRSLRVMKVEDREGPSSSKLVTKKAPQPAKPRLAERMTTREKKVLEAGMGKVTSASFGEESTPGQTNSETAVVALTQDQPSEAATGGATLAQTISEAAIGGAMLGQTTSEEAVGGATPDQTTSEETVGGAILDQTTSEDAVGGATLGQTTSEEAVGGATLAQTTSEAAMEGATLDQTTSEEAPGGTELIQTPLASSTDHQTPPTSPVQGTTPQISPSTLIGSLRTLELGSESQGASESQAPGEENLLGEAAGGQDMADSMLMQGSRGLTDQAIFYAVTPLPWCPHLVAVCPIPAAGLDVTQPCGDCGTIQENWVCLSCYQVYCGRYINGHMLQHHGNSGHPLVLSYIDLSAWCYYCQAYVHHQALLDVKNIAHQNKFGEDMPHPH
# Procedure: as §1, §2, §3, §4
# [2] = system: 60 human cell line panel of the National Cancer Institute; parameters: method as in PMID 26048026; details: cell lines from a broad range of tumors, including TNBCs; cited from earlier work
# [3] = Aqueous solubility after sonication; format: physicochemical; details: water; after sonication for 30 min
# From the text: The synthesis of the B-ring series mirrored that of the A-ring series producing B-ring hybrids AM-191 (n = 1, 27a), AM-192 (n = 3, 27b), and AM-193 (n = 5, 27c) in 9 steps (Fig. 3).
# [4] = 6 h, RNAseq Supplemental table 1
# [5] = 6 h, RNAseq Supplemental table 2, 1 µM AM-193, 10 µM DK-406, 100 nM 1,25D and SAHA
# [6] = 24 h, RNAseq Supplemental table 2, 1 µM AM-193, 10 µM DK-406, 100 nM 1,25D and SAHA
# [7] = 48 h, RNAseq Supplemental table 1
# T1 sequence (Q92769 whole entry): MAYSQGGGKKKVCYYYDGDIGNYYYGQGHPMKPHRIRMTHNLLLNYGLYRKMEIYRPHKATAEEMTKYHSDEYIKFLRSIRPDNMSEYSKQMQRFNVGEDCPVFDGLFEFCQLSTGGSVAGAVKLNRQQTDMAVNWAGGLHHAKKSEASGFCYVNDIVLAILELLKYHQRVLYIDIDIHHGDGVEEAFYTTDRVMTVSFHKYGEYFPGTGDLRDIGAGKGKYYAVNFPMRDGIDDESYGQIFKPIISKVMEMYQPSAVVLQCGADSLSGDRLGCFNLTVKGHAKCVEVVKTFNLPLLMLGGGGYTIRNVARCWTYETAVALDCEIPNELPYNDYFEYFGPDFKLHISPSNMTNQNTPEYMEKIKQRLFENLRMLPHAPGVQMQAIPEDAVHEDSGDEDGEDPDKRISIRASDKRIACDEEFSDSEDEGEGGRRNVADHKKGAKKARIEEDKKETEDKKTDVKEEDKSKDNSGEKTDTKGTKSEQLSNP
smiles,measurement,setting,value
"C=C1/C(=C\C=C2/CCC[C@]3(C)[C@@H]([C@H](C)CCCC(C)(C)O)CC[C@@H]23)C[C@@H](O)C[C@@H]1O [1,25D, 1α,25-Dihydroxyvitamin D3, reference compound]",tumor growth and metastasis,[1],inactive alone or in combination
same,Aaas 6h Log Fold,4TO7 cells; [4],-1.012
same,Aacs 6h Log Fold,4TO7 cells; [4],1.070
same,Aaed1 6h Log Fold,4TO7 cells; [4],-1.076
same,Aagab 6h Log Fold,4TO7 cells; [4],1.036
same,Aak1 6h Log Fold,4TO7 cells; [4],-1.011
same,Aaas 6h Log Fold,4TO7 cells; [5],-0.038
same,Aacs 6h Log Fold,4TO7 cells; [5],0.025
same,Aagab 6h Log Fold,4TO7 cells; [5],0.115
same,Aak1 6h Log Fold,4TO7 cells; [5],0.014
same,Aamdc 6h Log Fold,4TO7 cells; [5],-0.075
same,Aaas 24h Log Fold,4TO7 cells; [6],-0.054
same,Aacs 24h Log Fold,4TO7 cells; [6],0.127
same,Aagab 24h Log Fold,4TO7 cells; [6],0.138
same,Aak1 24h Log Fold,4TO7 cells; [6],0.00666
same,Aamdc 24h Log Fold,4TO7 cells; [6],-0.360
same,Aaas 48h Log Fold,4TO7 cells; [7],-1.436
same,Aacs 48h Log Fold,4TO7 cells; [7],1.516
same,Aaed1 48h Log Fold,4TO7 cells; [7],-1.677
same,Aagab 48h Log Fold,4TO7 cells; [7],1.592
same,Aak1 48h Log Fold,4TO7 cells; [7],1.091
CCC(CC)(c1ccc(OCC(O)C(C)(C)C)c(C)c1)c1ccc(OCCCCCC(=O)NO)cn1 (stereo not shown) [AM-172],IC50,purified HDAC2,7.7 µM
same,IC50,purified HDAC6,0.3 µM
CCC(CC)(c1ccc(OCC(=O)NO)cc1)c1ccc(OCC(O)C(C)(C)C)c(C)n1 (stereo not shown) [AM-191],IC50,purified HDAC2,8.1 µM
same,IC50,purified HDAC6,1.9 µM
CCC(CC)(c1ccc(OCCCC(=O)NO)cc1)c1ccc(OCC(O)C(C)(C)C)c(C)n1 (stereo not shown) [AM-192],IC50,purified HDAC2,6.5 µM
same,IC50,purified HDAC6,0.5 µM
CCC(CC)(c1ccc(OCCCCCC(=O)NO)cc1)c1ccc(OCC(O)C(C)(C)C)c(C)c1 (stereo not shown) [DK-367],tumor growth and metastasis,[1],reduced tumor growth and metastasis
same,antiproliferative activities,[2],displayed antiproliferative activities
same,solubility at 30 min,[3],1.91 µg/mL
"O=C(CCCCCCC(=O)Nc1ccccc1)NO [SAHA, Suberoylanilide hydroxamic acid, reference compound]",tumor growth and metastasis,[1],inactive alone or in combination
